# Where a SMILES comes first, the peptide text is derived from it. Where no end group is shown, it is not given here. [ ]: non-standard residue; d: D form. Aib = CC(C)(N)C(=O)O
# Assays:
# [1] = molecular target: T1, LCAT (purified from human plasma) (Homo sapiens, UniProt P04180); assay: LCAT activation assay; type: biochemical; set-up: ACTIVITY (%) LCAT: concentration or dose not given beside the values; conditions: for ACTIVITY (%) LCAT: LCAT activation as compared with native human ApoA-I; for LCAT activation: as compared with native ApoA-I (100%)
# T1 construct: from tissue; host or cells: human plasma
# T1 sequence (P04180 25-440): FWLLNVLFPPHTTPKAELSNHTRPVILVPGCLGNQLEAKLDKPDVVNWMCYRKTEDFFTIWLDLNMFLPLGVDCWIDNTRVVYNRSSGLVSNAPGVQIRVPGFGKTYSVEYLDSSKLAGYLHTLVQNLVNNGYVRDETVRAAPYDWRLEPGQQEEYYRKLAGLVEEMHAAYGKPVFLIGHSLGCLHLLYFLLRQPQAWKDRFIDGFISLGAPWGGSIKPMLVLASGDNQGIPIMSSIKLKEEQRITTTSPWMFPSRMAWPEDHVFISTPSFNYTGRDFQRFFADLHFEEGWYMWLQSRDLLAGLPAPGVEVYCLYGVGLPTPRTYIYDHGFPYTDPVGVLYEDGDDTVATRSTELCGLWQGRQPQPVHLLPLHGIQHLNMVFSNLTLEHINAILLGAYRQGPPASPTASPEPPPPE
# Protocol: The peptides synthesized as described in Section 6, supra, were analyzed in vitro for their ability to activate LCAT. In the LCAT assay, substrate vesicles (small unilamellar vesicles or “SUVs”) composed of egg phophatidylcholine (EPC) or 1-Palmitoyl-2-oleyl-phosphatidyl-choline (POPC) and radiolabelled cholesterol are preincubated with equivalent masses either of peptide or ApoA-I (isolated from human plasma). The reaction is initiated by addition of LCAT (purified from human plasma). Native ApoA-I, which was used as positive control, represents 100% activation activity. “Specific activity” (i.e., units of activity (LCAT activation)/unit of mass) of the peptides can be calculated as the concentration of peptide that achieves maximum LCAT activation. For example, a series of concentrations of the peptide (e.a., a limiting dilution) can be assayed to determine the “specific activity” for the peptide—the concentration which achieves maximal LCAT activation (i.e., percentage conversion of cholesterol to cholesterol ester) at a specific timepoint in the assay (e.g., 1 hr.). When plotting percentage conversion of cholesterol at, e.g., 1 hr., against the concentration of peptide used, the “specific activity” can be identified as the concentration of peptide that achieves a plateau on the plotted curve.
# The vesicles used in the LCAT assay are SUVs composed of egg phosphatidylcholine (EPC) or 1-palmitoyl-2-oleyl-phosphatidylcholine (POPC) and cholesterol with a molar ratio of 20:1. To prepare a vesicle stock solution sufficient for 40 assays, 7.7 mg EPC (or 7.6 mg POPC; 10 μmol), 78 μg (0.2 μmol) 4-^14C-cholesterol, 116 μg cholesterol (0.3 μmol) are dissolved in 5 ml xylene and lyophilized. Thereafter 4 ml of assay buffer is added to the dry powder and sonicated under nitrogen atmosphere at 4° C. Sonication conditions: Branson 250 sonicator, 10 mm tip, 6×5 minutes; Assay buffer: 10 mM Tris, 0.14 M NaCl, 1 mM EDTA, pH 7.4). The sonicated mixture is centrifuged 6 times for 5 minutes each time at 14,000 rpm (16,000×g) to remove titanium particles. The resulting clear solution is used for the enzyme assay.
# For the LCAT purification, dextran sulfate/Mg^2+ treatment of human plasma is used to obtain lipoprotein deficient serum (LPDS), which is sequentially chromatographed on Phenylsepharose, Affigelblue, ConcanavalinA sepharose and anti-ApoA-I affinity chromatography, as summarized for a representative purification in TABLE IX, below: […]
# [2] = Circular dichroism: degree of helicity (free, SUVs, micelles, TFE); conditions: for He (%) free: percent helicity of free, unbound peptide; for He (%) SUVs: percent helicity of peptide-SUV complexes; for He (%) TFE: percent helicity of peptide-TFE solution; for He (%) mics: percent helicity of peptide-micelle complexes
# Protocol: Far UV circular dichroism spectra were recorded between 190 and 260 nm (in 0.5 nm or 0.2 nm increments) with a AVIV62DS spectrometer (AVIV Associates, Lakewood, N.J., USA) equipped with a thermoelectric cell holder and sample changer. The instrument was calibrated with (+)-10-camphoric acid. Between one and three scans were collected for each sample, using 10 cm, 5 cm, 1 cm and 0.1 cm path length quartz Suprasil cells, respectively, for peptide concentrations of 10^−7 M to 10^−4 M. The bandwidth was fixed at 1.5 nm and the scan speed to 1 s per wavelength step. The reported data are the mean of at least 2 or 3 independent measurements.
# After background substraction, spectra were converted to molar ellipticity (θ) per residue in deg. […] dmol^−1. The peptide concentration was determined by amino acid analysis and also by absorption spectrometry on a Perkin Elmer Lambda 17 UV/Visible spectrophotometer when the peptide contained a chromophore (tryptophane, dansyl, naphtylalanine).
# CD spectra were obtained with free, unbound peptide (5 μM in 5 mM phosphate buffer, pH 7.4); with peptide-SUV complexes (20:1 EPC:Chol., Ri=30 and Ri=50); with peptide-micelle complexes (1-myristoyl-2-hydroxy-sn-glycero-3-phosphatidyl choline, Ri=100); and with free, unbound peptide in the presence of 2,2,2-trifluoroethanol (TFE) (5 μM peptide, 90% vol TFE).
# The SUVs were obtained by dispersing the lipids (10 mM, 20:1 EPC:Chol., Avanti Polar Lipids, Ala.) in phosphate buffer (5 mM, pH 7.4) with bubbling N2 for 5 min., followed by sonication (1.5 hr.) in a bath sonicator. The homogeneity of the preparation was checked by FPLC.
# The micelles were obtained by dispersing the lipid (6 mM 1-myristoyl-2-hydroxy-sn-glycero-3-phosphatidyl choline, Avanti Polar Lipids, AL) in phosphate buffer (5 mM, pH 7.4) with bubbling N2 for 5 min., followed by vortexing.
# To obtain the peptide-SUV complexes, SUVs were added to the peptide (5 μM in 5 mM phosphate buffer, pH 7.4) at a phospholipid-peptide molar ratio (Ri) of 30 or 50.
# To obtain the peptide-micelle complexes, micelles were added to the peptide (5 μM in 5 mM phosphate buffer, pH 7.4) at a Ri of 100.
# All spectra were recorded at 37° C. The stability of peptide 4 (SEQ ID NO:4) as a function of temperature (both free in buffer and in micelles) was determined by recording spectra at a series of different temperatures.
# The degree of helicity of peptide 4 (SEQ ID NO:4) as a function of concentration was also determined.
# The degree of helicity of the peptides in the various conditions was determined from the mean residue ellipticity at 222 nm (Chen et al., 1974, Biochemistry 13:3350-3359) or by comparing the CD spectra obtained to reference spectra available on databases (16 helical reference spectra from Provencher & Glockner, 1981, Biochemistry 20:33-37; denatured protein reference spectra from Venyaminov et al., 1993, Anal. Biochem. 214:17-24) using the CONTIN curve-fitting algorithm version 2DP, CD-1 pack (Aug. 1982) (Provencher, 1982, Comput. Phys. Commun. 27:213-227, 229-242). Acceptable fit was determined using the statistical analysis methodology provided by the CONTIN algorithm.
# [3] = tested on: lipidic vesicles (EPC/Chol 5%); assay: Fluorescence spectroscopy lipid binding; conditions: for I/Io / λmax: peptide 2 μM
# Protocol: The lipid binding properties of the peptides synthesized in Section 6, supra, were tested by fluorescence measurements with labeled peptides, in the present case Tryptophane (Trp or W) or Naphtylalanine (Nal). The fluorescence spectra were recorded on a Fluoromax from Spex (Jobin-Yvon) equipped with a Xenon lamp of 150 W, two monochromators (excitation and emission), a photomultiplier R-928 for detection sensitive in the red up to 850 nm and a thermoelectric magnetic stirred cell holder. Quartz Suprasil cuvettes were used for measurements in the micromolar concentration range. A device of variable slits (from 0.4 to 5 nm) allows modulation of the incident and emitted intensities according to the concentration of peptide used. The reported values are in general the average of between 2 to 4 spectra. The peptide concentration is determined by absorption spectrometry on a Philips PU 8800 usng the absorption band of the Trp (ε280 nm=5,550 M^−1cm^−1 in Tris buffer) or the Nal (ε224 nm=92,770 M^−1cm^−1 in methanol).
# Fluorescence spectra of the peptides were recorded between 290 nm and 450 nm in Tris-HCl buffer (20 mM, pH=7.5), in the presence and absence of lipidic vesicles. The small unilamellar vesicles were formed after rehydration in buffer of the lyophilized phospholipids, dispersion and tip sonification under a N2 stream. The lipids used were either Egg PC/Chol. (20:1) or POPC/Chol. (20:1). The spectra were recorded at a peptide concentration of 2 μM and at a temperature of 37° C. The fluorescence reference standard in the case of Trp was N-acetyltryptophanylamide (NATA).
# Lipid binding studies were done through progressive lipidic vesicle addition to the peptide in solution at 2 μM (slits:5 nm in excitation and 1.5 nm in emission). Dilution effects were taken into account for the fluorescence intensity determination. The lipid concentrations were varied from 10 to 600 μM and the molar ratio of lipid to peptide (Ri) was varied from 5 to 300. The wavelength of excitation was set at 280 nm for both Trp and Nal.
# The data were directly recorded and treated by an IBM-PC linked to the spectrofluorimeter through the DM3000F software from Spex. The spectra were corrected by substraction of the solvent contribution and by application of a coefficient given by the constructor taking into account the variation of the photomultiplier response versus the wavelength.
# The fluorescence spectra of the peptides were characterized by the wavelength at their maximum of fluorescence emission and by their quantum yield compared to NATA in the case of peptides labeled with a tryptophane. The process of binding to lipids was analyzed by calculating the shift of the wavelength at the maximum of fluorescence emission, (λmax), and the variation of the relative. fluorescence intensity of emission versus the lipid concentration. The relative fluorescence intensity is defined as the following ratio: (I−I0)λmax/I0λmax. I and I0 are both measured at the (λmax) corresponding to the initial free state of the peptide, i.e., without lipids. I is the intensity at a defined lipid to peptide ratio and I0 is the same parameter measured in absence of lipids. The absence of these variations is relevant of the absence of interactions of the peptides with the lipids.
He (%) free [2] [%],He (%) SUVs [2] [%],He (%) TFE [2] [%],He (%) mics [2] [%],ACTIVITY (%) LCAT [1] [%],Molecule,other results
60,70,71,87,79,PVLDLFRELLNELLEAZKQKLK [peptide 10],–
–,–,–,–,10,"CC(=O)N1CCC[C@H]1C(=O)N[C@H](C(=O)N[C@@H](CC(C)C)C(=O)N[C@@H](CC(=O)O)C(=O)N[C@@H](CCC(=O)O)C(=O)N[C@@H](Cc1ccccc1)C(=O)N[C@@H](CCCN=C(N)N)C(=O)N[C@@H](CCC(=O)O)C(=O)N[C@@H](CCCCN)C(=O)N[C@@H](CC(C)C)C(=O)N[C@@H](CC(N)=O)C(=O)N[C@@H](CCC(=O)O)C(=O)N[C@@H](CCC(=O)O)C(=O)N[C@@H](CC(C)C)C(=O)N[C@@H](CCC(=O)O)C(=O)N[C@@H](C)C(=O)N[C@@H](CC(C)C)C(=O)N[C@@H](CCCCN)C(=O)N[C@@H](CCC(N)=O)C(=O)N[C@@H](CCCCN)C(=O)N[C@@H](CC(C)C)C(=O)N[C@@H](CCCCN)C(N)=O)C(C)C [Segrest's consensus 22-mer, reference compound] (Ac-PVLDEFREKLNEELEALKQKLK-NH2)",LCAT activation [1]: 10%
70,80,–,96,61,PVLDLFRELLNELLEALOQOLO [peptide 14],–
–,–,–,–,90,pVLDLFRELLNELLEALKQKLKK [peptide 5],–

# The remaining lines, values behind:
Molecule,He (%) free [2] [%],He (%) SUVs [2] [%],He (%) TFE [2] [%],He (%) mics [2] [%],ACTIVITY (%) LCAT [1] [%],other results
"PVLDLFRELLNLXLEALKEKLK (PVLDLFRELLNL[Aib]LEALKEKLK) [peptide 102, X is Aib; Gln-19 replaced by Glu-19]",–,–,–,–,–,LCAT activation (in words) [1]: did not activate LCAT
"PVLDLFRELWNELLEALKQKLK [peptide 15, peptide 4 containing a Trp residue at position 10]",55,64,68,–,–,"lipid binding (in words) [3]: very high affinity; lipid to peptide molar ratio at maximum burying of the Tryptophane residue [3]: lower than 5; maximum of the Trp emission wavelength when bound to lipidic vesicles ([3]; EPC/Chol 5% vesicles, shifted from 332 nm): 323 nm; I/Io ([3]; Lipid:Peptide Molar Ratio (Ri) 0): 0; λmax ([3]; Ri 0 (buffer, no lipid)): 332 nm; I/Io ([3]; Ri 5): 10.8; λmax ([3]; Ri 5): 323 nm; I/Io ([3]; Ri 10): 13.2; λmax ([3]; Ri 10): 323.5 nm; I/Io ([3]; Ri 30): 17.5; λmax ([3]; Ri 30): 323 nm; I/Io ([3]; Ri 100): 26.4; λmax ([3]; Ri 100): 323 nm; I/Io ([3]; Ri 200): 43.5; λmax ([3]; Ri 200): 323 nm"
"EWLEAFYKKVLEKLKELF [peptide 18AM4, reference compound]",18,47,–,44,–,LCAT activation [1]: less than 4%
pVLDLFRELLNEGLEALKQKLK [peptide 19],–,–,–,–,58,–
PVLDLFRELLNELZEALKQKLK [peptide 27],72,82,81,92,44,–
pVLDLFRELLNELLEALKQKLK [peptide 21],–,–,–,–,57,–

# Source: US6602854B1, “Branched multimeric Apo A-I agonist compounds” (priority 1997, dated 2003)
